Results published in patent US11066414B2, “Cot modulators and methods of use thereof” (Gilead Sciences, Inc., priority 2015, dated 2021).
Where two headings read alike, the source gives them in different places.

Assays:
TNFα = assay: Cot Monocyte TNFα Cell Based Assay
Human Cot = Human Cot (Homo sapiens (Human), UniProt P41279); assay: High Throughput Cot Biochemical Assay
[1] = Homo sapiens, Monocyte, read-out: EC50 TNF, LPS-stimulated human monocytes, TNFα TR-FRET
[2] = IC50 HTRF, Cot HTRF (TR-FRET KinEASE) biochemical assay, 400 μM ATP
[3] = Homo sapiens, Monocyte, read-out: EC50 TNF, LPS-stimulated human monocytes, TNFα
[4] = IC50 HTRF, Cot HTRF (TR-FRET) biochemical assay

Chain of Human Cot (P41279 30-397): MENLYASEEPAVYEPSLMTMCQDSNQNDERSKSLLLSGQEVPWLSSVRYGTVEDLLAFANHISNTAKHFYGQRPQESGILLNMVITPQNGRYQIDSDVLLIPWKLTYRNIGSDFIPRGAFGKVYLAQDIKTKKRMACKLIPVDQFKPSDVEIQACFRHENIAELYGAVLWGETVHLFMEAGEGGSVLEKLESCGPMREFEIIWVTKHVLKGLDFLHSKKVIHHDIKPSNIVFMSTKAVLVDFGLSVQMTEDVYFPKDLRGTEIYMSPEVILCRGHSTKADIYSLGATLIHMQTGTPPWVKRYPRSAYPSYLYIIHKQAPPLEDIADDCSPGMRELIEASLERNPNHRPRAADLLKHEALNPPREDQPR

EC50 (TNFα; [1]) | IC50 (Human Cot; [2]) | EC50 (TNFα; [3]) | IC50 (Human Cot; [4]) | SMILES | other results
1 µM | 1.23 µM |  |  | Cc1nc(F)ccc1[C@H](Nc1cc(Cl)c2ncc(C#N)c(NCC(C)(C)C)c2c1Br)c1nnn(C2(C(F)F)CC2)c1F [Example 975, (S)-5-bromo-8-chloro-6-(((1-(1-(difluoromethyl)cyclopropyl)-5-fluoro-1H-1,2,3-triazol-4-yl)(6-fluoro-2-methylpyridin-3-yl)methyl)amino)-4-(neopentylamino)quinoline-3-carbonitrile] | 
 |  | 0.212 µM | 0.006 µM | N#Cc1cnc2c(Cl)cc(N[C@@H](c3cccnc3)c3c[nH]nn3)cc2c1Nc1cccc(Cl)c1F [Example 257, (S)-8-chloro-4-((3-chloro-2-fluorophenyl)amino)-6-((pyridin-3-yl(1H-1,2,3-triazol-4-yl)methyl)-amino)quinoline-3-carbonitrile] | 
 |  |  |  | Cn1ccc2c([C@H](Nc3cc(C#N)c4ncc(C#N)c(NCC(C)(C)C)c4c3)c3cn(C4(C(F)F)CC4)nn3)cccc2c1=O [Example 871] | EC50 (TNFα; read-out: EC50 TNF, LPS-stimulated human monocytes, TNFα TR-FRET): 0.032 µM; IC50 (Human Cot; read-out: IC50 HTRF, Cot HTRF (TR-FRET KinEASE) biochemical assay, 400 μM ATP): 0.001 µM
 |  | 0.06 µM | 0.003 µM | Cc1nc(F)ccc1[C@H](Nc1cc(Cl)c2ncc(C#N)c(NCC(C)(C)CCl)c2c1)c1cn(C2(C(F)(F)F)CC2)nn1 [Example 635, (S)-8-chloro-4-((3-chloro-2,2-dimethylpropyl)amino)-6-(((6-fluoro-2-methylpyridin-3-yl)(1-(1-(trifluoromethyl)cyclopropyl)-1H-1,2,3-triazol-4-yl)methyl)amino)quinoline-3-carbonitrile] | 
 |  | 0.032 µM | 0.002 µM | Cc1nc(F)ccc1[C@H](Nc1cc(C#N)c2ncc(C#N)c(NCC(C)(C)C)c2c1)c1cn(C2CC2)nn1 [Example 454, (S)-6-(((1-cyclopropyl-1H-1,2,3-triazol-4-yl)(6-fluoro-2-methylpyridin-3-yl)methyl)amino)-4-(neopentylamino)-quinoline-3,8-dicarbonitrile] | 
0.017 µM | 0.002 µM |  |  | Cc1nc(F)ccc1[C@H](Nc1cc(C#N)c2ncc(C#N)c(NCC(C)(C)C(F)(F)F)c2c1)c1cn(C2(C)CC2)nn1 [Example 846, (S)-6-(((6-fluoro-2-methylpyridin-3-yl)(1-(1-methylcyclopropyl)-1H-1,2,3-triazol-4-yl)methyl)amino)-4-((3,3,3-trifluoro-2,2-dimethylpropyl)amino)quinoline-3,8-dicarbonitrile] | 
0.778 µM | 0.028 µM |  |  | COc1ccc([C@H](Nc2cc(Cl)c3ncc(C#N)c(NCC(C)(C)C)c3c2)c2cn(C3(C(F)(F)F)CC3)nn2)cn1 [Example 805, (S)-8-chloro-6-(((6-methoxypyridin-3-yl)(1-(1-(trifluoromethyl)cyclopropyl)-1H-1,2,3-triazol-4-yl)methyl)amino)-4-(neopentylamino)quinoline-3-carbonitrile] | 
 |  | 0.073 µM | 0.003 µM | Cn1cnc2cccc([C@H](Nc3cc(C#N)c4ncc(C#N)c(NCC(C)(C)C)c4c3)c3cn(C4(C(F)(F)F)CC4)nn3)c21 [Example 484, (S)-6-(((1-methyl-1H-benzo[d]imidazol-7-yl)(1-(1-(trifluoromethyl)cyclopropyl)-1H-1,2,3-triazol-4-yl)methyl)amino)-4-(neopentylamino)quinoline-3,8-dicarbonitrile] | 
 |  | 0.066 µM | 0.011 µM | Cc1nc(F)ccc1[C@H](Nc1cc(Cl)c2ncc(C#N)c(NCC(C)(C)C)c2c1)c1cn(C2CC(F)(F)C2)nn1 [Example 645, (S)-8-chloro-6-(((1-(3,3-difluorocyclobutyl)-1H-1,2,3-triazol-4-yl)(6-fluoro-2-methylpyridin-3-yl)methyl)amino)-4-(neopentylamino)quinoline-3-carbonitrile] | 
 |  | 1.51 µM | 0.004 µM | N#Cc1cnc2c(Cl)cc(N[C@H](c3cn(C4CCNCC4)nn3)c3cncs3)cc2c1Nc1ccc(F)c(Cl)c1 [Example 375, (R)-8-chloro-4-((3-chloro-4-fluorophenyl)amino)-6-(((1-(piperidin-4-yl)-1H-1,2,3-triazol-4-yl)(thiazol-5-yl)methyl)amino)quinoline-3-carbonitrile] | 
